The record followed here is patent US20220266206A1, “FORMULATION AND PROCESS FOR MANUFACTURING A HEAT STABLE OIL-IN-WATER EMULSION FOR CANNABIS BEVERAGES IN PLASTIC BOTTLES” (Gaia Botanicals LLC DBA Bluebird Botanicals, priority 2021, published 2022).

Where only a bound is given, the exact number is not on record here.

The nature of this series: Solubility of CBD in MCT oil (fractionated coconut oil). The class given is physicochemical. The note with it: carrier oil: fractionated coconut oil (MCT oil). An excerpt: In first mixing step 100, cannabinoid extract may be advantageously dissolved into a carrier oil to create oil phase 150. An aspect of the current invention is the use of a carrier oil, which overcomes the issues of aqueous solubility for the cannabinoid extract, particularly CBD. In its pure form, CBD is a non-polar crystalline solid which in the absence of an oil or alcohol will not readily dissolve to form a stable emulsion with the gum blend. By dissolving the CBD in a carrier oil in first mixing step 100, the CBD will be readily dissolved into the oil which increases its suitability for emulsion formation. In an embodiment of the invention, CBD is added to fractionated coconut oil (MCT oil) in first mixing step 100 using an immersion blender to thoroughly mix, then the mixture is transferred to a magnetic stir plate to allow for slow gentle mixing of the oil until the CBD is completely dissolved. First mixing step 100 can comprise immersion blending at a high shear rate followed by a slower mixing utilizing a stir bar. Heat may be used to speed the process but may result on oxidation of the CBD as well as result in off-flavors. MCT oil offers several advantages over other possible carrier oils as it is both colorless and nearly flavorless, and it readily dissolves CBD at concentrations as high as 30%. […]

`C=C(C)[C@@H]1CCC(C)=C[C@H]1c1c(O)cc(CCCCC)cc1O` [CBD, cannabidiol]: the “concentration of CBD readily dissolved in MCT oil” value was at most 30%.
